The values that follow come from patent US20260000676A1, “CHROMAN DERIVATIVES AS ESTROGEN RECEPTOR DEGRADERS” (THE REGENTS OF THE UNIVERSITY OF MICHIGAN, priority 2022, published 2026).

One test addresses ERα_LBD(GST) (Homo sapiens (Human), UniProt P03372). The experiment in a line: LanthaScreen TR-FRET ERα competitive binding assay. Conditions: read-out: ERα HTRF IC50. The protocol: • 1. ERα_LBD(GST) protein: 4 nM • 2. Tb Anti-GST: 2 nM • 3. Fluormone ES2 Green tracer: 3 nM • 4. Incubation time: 60 min • 5. DMSO: 1% • 6. Assay buffer: Adding 1M DTT to Nuclear receptor Buffer K for final 5 mM DTT. • 7. ZPE: 1% DMSO • 8. HPE: 1 μM ARV_471 • 9. LanthaScreen® TR-FRET ERα Competitive Binding Assay (ThermoFisher, #A15887)
• 1) Cherry pick 2 μL 10 mM compound stock to column 1 of a 384 intermediate plate • 2) Add 18 μL DMSO to column 1 to dilute compound to 1 mM. • 3) Transfer 10 μL 1 mM compound to column 1 of a LDV plate. • 2) Add 6 μl DMSO to column 2-10 of the LDV plate. • 3) Compounds undergo 3-fold serial dilution (3 μL+6 μL) in DMSO. • 4) Transfer 120 nL compound solution to assay plate. • ZPE: 120 nL 100% DMSO
Prepare complete nuclear receptor buffer K by adding 1 M DTT to nuclear receptor buffer K for a final concentration of 5 mM DTT. Complete nuclear receptor buffer K must be prepared fresh daily. Prepare 2× protein solution using complete nuclear receptor buffer K containing 8 nM ERα_LBD(GST) and 4 nM Tb Anti-GST. Then, prepare 2× Fluormone ES2 Green tracer (6 nM) using complete nuclear receptor buffer K. Add 6 μL 2× Fluormone ES2 green tracer into a compound plate (PerkinElmer 6008289) by dragonfly with one-tips-addition. Subsequently, add 6 μL 2× protein solution into the plate. Briefly and gently mix the 384-well plate on a plate shaker and incubate at room temperature protected from light for 60 min. The plate is sealed with a cover to minimize evaporation. Read the plate at wavelengths of 520 nm and 495 nm. Calculate the TR-FRET ratio by dividing the emission signal at 520 nm by the emission signal at 495 nm. Generate a binding curve by plotting the emission ratio vs. the log [ligand]. To determine the IC50 value, fit the data using XL-fit for a sigmoidal dose-response.

The target of the next test is CRBN/DDB1 (Homo sapiens (Human), UniProt Q96SW2). Kind of test: HTRF binding assay to CRBN/DDB1. The settings on record: read-out: CRBN HTRF IC50. The protocol:
The binding potency was determined using HTRF assay technology (Perkin Elmer). Compounds were serially diluted in DMSO and 0.2 μL volume was transferred to white 384-well plate.

Test [1] concerns the target T1, ER (Homo sapiens (Human), UniProt P03372). The experiment in a line: In-cell western (ICW) ER degradation assay in MCF-7 cells. Conditions: MCF7, 16 hrs; for DC50: ER degradation; for Dmax: MCF7, maximal ER degradation; for MCF7 Dmax %: maximal ER degradation. It is filed as cell-based.
In test [2] the target is T1, ER. The experiment in a line: In-cell western (ICW) ER degradation assay in T47D cells. It is filed as cell-based. Conditions: 16 hrs; for DC50: ER degradation; for Dmax / T47D Dmax %: maximal ER degradation.

T1 sequence (P03372 whole entry): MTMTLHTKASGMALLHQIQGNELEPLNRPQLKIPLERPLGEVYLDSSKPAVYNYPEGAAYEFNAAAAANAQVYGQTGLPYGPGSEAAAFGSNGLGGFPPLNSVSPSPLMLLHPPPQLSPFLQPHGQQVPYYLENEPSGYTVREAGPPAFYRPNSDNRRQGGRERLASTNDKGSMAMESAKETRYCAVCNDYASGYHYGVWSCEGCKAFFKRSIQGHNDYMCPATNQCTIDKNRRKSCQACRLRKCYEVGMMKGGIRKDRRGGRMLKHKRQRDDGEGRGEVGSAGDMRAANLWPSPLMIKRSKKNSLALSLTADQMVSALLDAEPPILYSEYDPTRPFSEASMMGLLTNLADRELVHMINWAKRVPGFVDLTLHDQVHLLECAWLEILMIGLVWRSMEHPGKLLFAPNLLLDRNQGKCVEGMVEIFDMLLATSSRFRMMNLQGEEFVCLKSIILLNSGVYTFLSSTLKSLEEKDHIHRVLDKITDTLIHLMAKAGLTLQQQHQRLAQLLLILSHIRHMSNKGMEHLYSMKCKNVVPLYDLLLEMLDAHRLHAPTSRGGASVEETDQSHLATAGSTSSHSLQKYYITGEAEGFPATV
ERα_LBD(GST), sequence (P03372 311-547): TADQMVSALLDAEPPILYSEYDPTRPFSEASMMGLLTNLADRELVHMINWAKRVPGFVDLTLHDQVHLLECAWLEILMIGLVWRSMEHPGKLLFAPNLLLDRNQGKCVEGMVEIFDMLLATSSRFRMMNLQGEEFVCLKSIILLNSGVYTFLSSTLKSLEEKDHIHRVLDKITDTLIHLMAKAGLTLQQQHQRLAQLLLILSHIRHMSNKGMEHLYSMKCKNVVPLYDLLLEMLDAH
CRBN/DDB1, sequence (Q96SW2 whole entry): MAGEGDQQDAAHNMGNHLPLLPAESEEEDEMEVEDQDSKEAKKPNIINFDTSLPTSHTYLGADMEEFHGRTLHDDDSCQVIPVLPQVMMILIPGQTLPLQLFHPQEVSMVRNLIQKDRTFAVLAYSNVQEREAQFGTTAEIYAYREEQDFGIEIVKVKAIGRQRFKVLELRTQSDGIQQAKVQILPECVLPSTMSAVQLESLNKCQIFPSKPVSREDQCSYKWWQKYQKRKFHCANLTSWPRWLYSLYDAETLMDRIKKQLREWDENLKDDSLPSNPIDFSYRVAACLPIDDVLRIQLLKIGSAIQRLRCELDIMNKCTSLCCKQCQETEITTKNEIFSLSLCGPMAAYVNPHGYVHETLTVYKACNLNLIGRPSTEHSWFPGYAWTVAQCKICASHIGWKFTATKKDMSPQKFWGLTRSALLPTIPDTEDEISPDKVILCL
CRBN/DDB1, sequence (Q16531 whole entry partner): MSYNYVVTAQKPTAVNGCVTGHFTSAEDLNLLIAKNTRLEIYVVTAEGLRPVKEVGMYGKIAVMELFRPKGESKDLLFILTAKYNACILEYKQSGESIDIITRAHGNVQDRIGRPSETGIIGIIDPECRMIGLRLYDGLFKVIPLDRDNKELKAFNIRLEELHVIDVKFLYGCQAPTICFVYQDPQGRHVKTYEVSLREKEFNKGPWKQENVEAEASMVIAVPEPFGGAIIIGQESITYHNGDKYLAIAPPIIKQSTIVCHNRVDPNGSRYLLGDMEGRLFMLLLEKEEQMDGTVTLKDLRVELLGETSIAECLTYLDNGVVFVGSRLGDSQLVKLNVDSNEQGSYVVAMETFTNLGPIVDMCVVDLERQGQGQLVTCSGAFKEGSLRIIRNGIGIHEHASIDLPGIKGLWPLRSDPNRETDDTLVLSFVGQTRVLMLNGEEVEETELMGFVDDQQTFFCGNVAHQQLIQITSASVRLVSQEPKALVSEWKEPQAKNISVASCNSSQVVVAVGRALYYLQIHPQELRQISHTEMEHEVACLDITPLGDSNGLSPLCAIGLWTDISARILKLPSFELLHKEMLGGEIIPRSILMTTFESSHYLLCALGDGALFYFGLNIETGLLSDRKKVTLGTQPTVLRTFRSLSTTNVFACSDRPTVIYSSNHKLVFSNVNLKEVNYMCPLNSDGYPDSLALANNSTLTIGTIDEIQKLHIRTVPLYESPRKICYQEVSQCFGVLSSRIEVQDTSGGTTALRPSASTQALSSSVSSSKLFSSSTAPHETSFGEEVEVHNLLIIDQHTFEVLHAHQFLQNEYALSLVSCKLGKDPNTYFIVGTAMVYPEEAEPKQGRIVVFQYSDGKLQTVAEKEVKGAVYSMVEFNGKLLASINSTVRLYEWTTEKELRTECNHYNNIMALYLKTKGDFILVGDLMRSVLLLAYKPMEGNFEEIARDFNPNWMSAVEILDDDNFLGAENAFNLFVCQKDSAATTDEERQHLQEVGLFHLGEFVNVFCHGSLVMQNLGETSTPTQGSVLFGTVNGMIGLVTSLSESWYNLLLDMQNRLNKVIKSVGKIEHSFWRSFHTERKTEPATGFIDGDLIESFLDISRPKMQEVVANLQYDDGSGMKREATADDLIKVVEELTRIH

`O=C1CC[C@@H](N2Cc3cc4c(cc3C2=O)CN(C(=O)CN2CCC3(CC2)CCN(c2ccc([C@H]5c6ccc(O)cc6OC[C@H]5c5ccccc5)cc2)CC3)C4)C(=O)N1` (single isomer, unassigned) [Compound A41]: the IC50 was not below 5 nM on ERα_LBD(GST) and 50 to 500 nM at CRBN/DDB1. The DC50 on ER [1] is 1 to 10 nM; at ER [2] it was less than 1 nM. Moreover, the maximal degradation (Dmax) on ER [1] is 50 to 75%; at ER [2], not below 75%.
Turning to `O=C1CC[C@H](NC(=O)c2ccc3c(n2)OC[C@H]2CN(CC4CCC5(CC4)CN(c4ccc([C@@H]6c7ccc(O)cc7OC[C@@H]6c6ccccc6)cc4)C5)CCN32)C(=O)N1` [Compound A142, (R)-N-((S)-2,6-dioxopiperidin-3-yl)-3-((2-(4-((3S,4R)-7-hydroxy-3-phenylchroman-4-yl)phenyl)-2-azaspiro[3.5]nonan-7-yl)methyl)-1,2,3,4,4a,5-hexahydropyrazino[1,2-d]pyrido[2,3-b][1,4]oxazine-8-carboxamide], the values for the half-maximal inhibitory concentration (IC50) on ERα_LBD(GST) and at CRBN/DDB1 were less than 5 nM and 500 to 5000 nM, respectively. Besides, the DC50 is 1 to 10 nM on ER [1] and less than 1 nM at ER [2]. In addition, the Dmax on ER [1] and on ER [2] was 50 to 75% in each case.
Turning to `COc1cc(N2CCC3(CC2)CC(CN2CCC4(CC2)COc2c4ccc4c2CN(C2CCC(=O)NC2=O)C4=O)C3)c(F)cc1[C@H]1c2ccc(O)cc2OC[C@H]1c1ccccc1` (stereo partly drawn) [Compound A130, 3-(1′-((7-(2-fluoro-4-((3R,4R)-7-hydroxy-3-phenylchroman-4-yl)-5-methoxyphenyl)-7-azaspiro[3.5]nonan-2-yl)methyl)-6-oxo-6,8-dihydro-2H,7H-spiro[furo[2,3-e]isoindole-3,4′-piperidin]-7-yl)piperidine-2,6-dione], the IC50 is less than 5 nM on ERα_LBD(GST) and 50 to 500 nM on CRBN/DDB1. Besides, the DC50 on ER [1] and on ER [2] was less than 1 nM each time. Besides, the “MCF7 Dmax %” value on ER [1] was “A (“A”; >=75%)”. Moreover, at ER [2], the “T47D Dmax %” value is given as “A (“A”; >=75%)”.
Take `O=C1CCC(N2Cc3c(ccc4c3OCC43CCN(CC4COC5(CCN(c6ccc([C@H]7c8ccc(O)cc8OC[C@H]7c7ccccc7)cc6)CC5)C4)CC3)C2=O)C(=O)N1` (stereo partly drawn) [Compound A146, 3-(1′-((8-(4-((3R,4S)-7-hydroxy-3-phenylchroman-4-yl)phenyl)-1-oxa-8-azaspiro[4.5]decan-3-yl)methyl)-6-oxo-6,8-dihydro-2H,7H-spiro[furo[2,3-e]isoindole-3,4′-piperidin]-7-yl)piperidine-2,6-dione]: the half-inhibitory concentration (IC50) is not below 5 nM on ERα_LBD(GST) and less than 50 nM on CRBN/DDB1. In addition, the DC50 on ER [1] and on ER [2] was 1 to 10 nM throughout. For the same compound, the Dmax on ER [1] was in the range of 50 to 75%; at ER [2], 25 to 50%.
For the compound `O=C1CCC(N2C(=O)c3cc4c(cc3C2=O)CN(CC(=O)N2CC3(CCN(c5ccc([C@@H]6c7ccc(O)cc7OC[C@@H]6c6ccccc6)cc5)CC3)C2)C4)C(=O)N1` (single isomer, unassigned) [Compound A26], the 50% inhibitory concentration (IC50) is less than 5 nM on ERα_LBD(GST) and 50 to 500 nM on CRBN/DDB1.
Turning to `O=C1CCC(N2Cc3c(ccc4c3OC[C@H]3CN(CC5CCN(c6ccc([C@H]7c8ccc(O)cc8OC[C@H]7c7ccccc7)cn6)CC5)CCN43)C2=O)C(=O)N1` (single isomer, unassigned) [Compound A64], the figures for the IC50 on ERα_LBD(GST) and on CRBN/DDB1 were less than 5 nM and 50 to 500 nM, respectively. Further, the DC50 on ER [1] and at ER [2] was 1 to 10 nM in each case. The Dmax was 25 to 50% at ER [1] and 50 to 75% at ER [2].
As to `O=C1CC[C@@H](NC(=O)c2ccc(N3CCN(CC4COC5(CCN(c6ccc([C@H]7c8ccc(O)cc8OC[C@H]7c7ccccc7)cc6)CC5)C4)CC3)cn2)C(=O)N1` (single isomer, unassigned) [Compound A145], the concentration for half-maximal inhibition (IC50) is less than 5 nM at ERα_LBD(GST) and more than 5000 nM at CRBN/DDB1. Further, the DC50 is 1 to 10 nM on ER [1] and less than 1 nM at ER [2]. Further, the Dmax at ER [1] and on ER [2] was 50 to 75% throughout.
Regarding `COc1cc(N2CCC(CN3CCN4c5ccc6c(c5OC[C@H]4C3)CN(C3CCC(=O)NC3=O)C6=O)CC2)ccc1[C@@H]1c2ccc(O)cc2OC[C@@H]1c1ccccc1` (single isomer, unassigned) [Compound A77], the IC50 on ERα_LBD(GST) was less than 5 nM; on CRBN/DDB1, 500 to 5000 nM. In addition, the DC50 at ER [1] and on ER [2] was less than 1 nM each time. In addition, the Dmax on ER [1] and on ER [2] was 50 to 75% each time.
For `COc1cc(N2CCC3(CC2)CC(CN2CCN4c5ccc6c(c5OC[C@@H]4C2)CN([C@@H]2CCC(=O)NC2=O)C6=O)C3)c(F)cc1[C@@H]1c2ccc(O)cc2OC[C@@H]1c1ccccc1` (single isomer, unassigned) [Compound A125], the half-maximal inhibitory concentration (IC50) at ERα_LBD(GST) is less than 5 nM. At ER [1], this compound registered a DC50 of less than 1 nM and a Dmax not below 75%. Moreover, on ER [2], the DC50 is less than 1 nM and the maximal degradation (Dmax) is not below 75%.
For the compound `O=C1CCC(N2Cc3c(ccc4c3OC[C@H]3CN(CC5CC6(CCN(c7ccc([C@@H]8c9ccc(O)cc9OC[C@@H]8c8ccccc8)cn7)CC6)C5)CCN43)C2=O)C(=O)N1` (single isomer, unassigned) [Compound A66], the IC50 on ERα_LBD(GST) was not below 5 nM. Also, at ER [1], the DC50 was 1 to 10 nM; the “MCF7 Dmax %” value was “B (“B”: >50% and <75%)”. Moreover, on ER [2], the 50% degradation concentration (DC50) was in the range of 1 to 10 nM; the “T47D Dmax %” value is “B (“B”: >50% and <75%)”.
As for `O=C1CCC(N2Cc3cc4c(cc3C2=O)OCC42CCN(CC3CCC4(CC3)CN(c3ccc([C@H]5c6ccc(O)cc6OC[C@H]5c5ccccc5)cc3)C4)CC2)C(=O)N1` (stereo partly drawn) [Compound A99, 3-(1′-((2-(4-((3R,4S)-7-hydroxy-3-phenylchroman-4-yl)phenyl)-2-azaspiro[3.5]nonan-7-yl)methyl)-7-oxo-5,7-dihydro-2H,6H-spiro[furo[2,3-f]isoindole-3,4′-piperidin]-6-yl)piperidine-2,6-dione], at ERα_LBD(GST), the IC50 is less than 5 nM. The DC50 on ER [1] and on ER [2] was less than 1 nM in each case. Besides, the Dmax on ER [1] and on ER [2] was 50 to 75% in each case.
On to `O=C1CC[C@H](N2Cc3cc4c(cc3C2=O)OC[C@@H]2CN(CC3CC5(CCN(c6ccc([C@@H]7c8ccc(O)cc8OC[C@@H]7c7ccccc7)cc6)CC5)C3)CCN42)C(=O)N1` (single isomer, unassigned) [Compound A59], for which, at ERα_LBD(GST), the IC50 was less than 5 nM. For the same compound, on ER [1], the DC50 lay within 1 to 10 nM and the Dmax was 50 to 75%. In addition, at ER [2], the DC50 is less than 1 nM and the Dmax is not below 75%.
On the same counts, the results for `COc1cc(N2CCC(CN3CCN4c5ccc6c(c5OC[C@@H]4C3)CN([C@@H]3CCC(=O)NC3=O)C6=O)CC2)c(F)cc1[C@@H]1c2ccc(O)cc2OC[C@@H]1c1ccccc1` (single isomer, unassigned) [Compound A106] are less than 5 nM, less than 1 nM, not below 75%, less than 1 nM and not below 75%.
For `O=C1CC[C@@H](N2Cc3c(ccc4c3OC[C@@H]3CN(C[C@@H]5COC6(CCN(c7ccc([C@H]8c9ccc(O)cc9OC[C@H]8c8ccccc8)cc7)CC6)C5)CCN43)C2=O)C(=O)N1` (single isomer, unassigned) [Compound A132], the concentration for half-maximal inhibition (IC50) on ERα_LBD(GST) was less than 5 nM. Moreover, at ER [1], the DC50 lay within 1 to 10 nM and the Dmax fell in the range of 50 to 75%. Also, at ER [2], the DC50 lay within 1 to 10 nM and the Dmax fell in the range of 50 to 75%.
